US9302999B2, “Substituted triazoles as herbicides” (E. I. DU PONT DE NEMOURS AND COMPANY, priority 2012, dated 2016)

Key:
Assay type in all cases: in vivo
[1] = tested on: pigweed, palmer (palmer pigweed, Amaranthus palmeri); experiment: Test F pre-/postemergence: pigweed, palmer
Description: (§1) Seeds of plant species selected from corn (Zea mays), soybean (Glycine max), velvetleaf (Abutilon theophrasti), lambsquarters (Chenopodium album), poinsettia, wild (wild poinsettia, Euphorbia heterophylla), pigweed, palmer (palmer pigweed, Amaranthus palmeri), waterhemp (common waterhemp, Amaranthus rudis), surinam grass (Brachiaria decumbens), crabgrass, Brazil (Brazilian crabgrass, Digitaria horizontalis), panicum, fall (fall panicum Panicum dichotomiflorum), crabgrass, large (large crabgrass, Digitaria sanguinalis), foxtail, giant (giant foxtail, Setaria faberii), foxtail, green (green foxtail Setaria viridis), goosegrass (Eleusine indica), ragweed (common ragweed, Ambrosia elatior), barnyardgrass (Echinochloa crus-galli), sandbur (southern sandbur, Cenchrus echinatus), arrowleaf sida (Sida rhombifolia), ryegrass, Italian (Italian ryegrass, Lolium multiflorum), dayflower, VA (Virginia (VA) dayflower, Commelina virginica), field bindweed (Convolvulus arvensis), cocklebur (common cocklebur, Xanthium strumarium), morningglory (Ipomoea coccinea), nightshade (eastern black nightshade, Solanum ptycanthum), kochia (Kochia scoparia), nutsedge, yellow (yellow nutsedge, Cyperus esculentus), johnsongrass (Sorghum halepense), smartweed (ladysthumb smartweed, Polygonum persicaria), and beggarticks (hairy beggarticks, Bidens pilosa), were planted into a silt loam soil and treated preemergence with test chemicals formulated in a non-phytotoxic solvent mixture which included a surfactant. At the same time, plants selected from these crop and weed species and also pigweed (Amaranthus retroflexus), waterhemp_RES1 (ALS/Triazine resistant common waterhemp, Amaranthus rudis) and waterhemp_RES2 (ALS/HPPD resistant common waterhemp, Amaranthus rudis) were planted in pots containing a planting medium comprising spaghnum peat moss, vermiculite, wetting agent and starter nutrients treated with postemergence applications of some of the test chemicals formulated in the same manner. Plants ranged in height from 2 to 18 cm for postemergence treatments (1- to 4-leaf stage).
(§2) Treated plants and controls were maintained in a greenhouse for 14 to 21 days, after which time all species were compared to controls and visually evaluated. Plant response ratings, summarized in Table E, are based on a scale of 0 to 100 where 0 is no effect and 100 is complete control. A dash (-) response means no test result.

[2] = tested on: dayflower, VA (Virginia (VA) dayflower, Commelina virginica); experiment: Test F pre-/postemergence: dayflower, VA
Method in brief: (§3)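 0–100 visual control scores, taken 14–21 d after application in the greenhouse. Preemergence treatment was made to silt loam soil at sowing. Postemergence sprays hit 1- to 4-leaf plants (2–18 cm) in peat/vermiculite mix. Surfactant-containing non-phytotoxic solvent served as the vehicle.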

[3] = tested on: field bindweed (Convolvulus arvensis); experiment: Test F pre-/postemergence: field bindweed
Description: as §1, §2

[4] = tested on: barnyardgrass (Echinochloa crus-galli); experiment: Test F pre-/postemergence: barnyardgrass
Description: as §1, §2

[5] = tested on: lambsquarters (Chenopodium album); experiment: Test F pre-/postemergence: lambsquarters; conditions: Preemergence
Method in brief: as §3

[6] = tested on: wheat, spring (spring wheat, Triticum aestivum); experiment: Test D pre-/postemergence: wheat, spring
Description: Seeds of plant species selected from bluegrass (annual bluegrass, Poa annua), blackgrass (Alopecurus myosuroides), canarygrass (Phalaris minor), chickweed (common chickweed, Stellaria media), galium (catchweed bedstraw, Galium aparine), bromegrass, downy (downy bromegrass, Bromus tectorum), field poppy (Papaver rhoeas), field violet (Viola arvensis), foxtail, green (green foxtail, Setaria viridis), deadnettle (henbit deadnettle, Lamium amplexicaule), ryegrass, Italian (Italian ryegrass, Lolium multiflorum), kochia (Kochia scoparia), lambsquarters (Chenopodium album), oilseed rape (Brassica napus), pigweed (Amaranthus retroflexus), Russian thistle (Salsola iberica), chamomile (scentless chamomile, Matricaria inodora), speedwell (bird's-eye speedwell, Veronica persica), barley, spring (spring barley, Hordeum vulgare), wheat, spring (spring wheat, Triticum aestivum), buckwheat, wild (wild buckwheat, Polygonum convolvulus), mustard, wild (wild mustard, Sinapis arvensis), oat, wild (wild oat, Avena fatua), radish, wild (wild radish, Raphanus raphanistrum), windgrass (Apera spica-venti), barley, winter (winter barley, Hordeum vulgare), and wheat, winter (winter wheat, Triticum aestivum) were planted into a silt loam soil and treated preemergence with test chemicals formulated in a non-phytotoxic solvent mixture which included a surfactant. At the same time, these same crop and weed species were planted in pots containing the planting medium comprising spaghnum peat moss, vermiculite, wetting agent and starter nutrients and treated with postemergence applications of the test chemicals formulated in the same manner. Plants ranged in height from 2 to 18 cm (1- to 4-leaf stage).
as §2, with “controlled growth environment” for “greenhouse”, “days” for “days,”, “D,” for “E,”

[7] = Postemergence, 8 g ai/ha, scale 0 to 100
[8] = Postemergence, 16 g ai/ha, scale 0 to 100
[9] = Postemergence, 31 g ai/ha, scale 0 to 100
[10] = Postemergence, 62 g ai/ha, scale 0 to 100
[11] = Postemergence, 125 g ai/ha, scale 0 to 100
[12] = Preemergence, 8 g ai/ha, scale 0 to 100, 0 no effect, 100 complete control
[13] = Preemergence, 16 g ai/ha, scale 0 to 100, 0 no effect, 100 complete control
[14] = Preemergence, 31 g ai/ha, scale 0 to 100, 0 no effect, 100 complete control
[15] = Preemergence, 62 g ai/ha, scale 0 to 100
[16] = Preemergence, 125 g ai/ha, scale 0 to 100
[17] = 16 g ai/ha, scale 0 to 100, 0 no effect, 100 complete control
[18] = 31 g ai/ha, scale 0 to 100, 0 no effect, 100 complete control
[19] = Postemergence, 31 g ai/ha, scale 0 to 100 (0 no effect, 100 complete control)
[20] = Postemergence, 62 g ai/ha, scale 0 to 100 (0 no effect, 100 complete control)
[21] = Postemergence, 125 g ai/ha, scale 0 to 100, 0 no effect, 100 complete control
[22] = Preemergence, 250 g ai/ha, scale 0 to 100

For `CCOc1nn(-c2ccc(F)cc2)nc1Cc1ccnc(C(F)(F)F)c1` [Compound 196, 4-[[5-ethoxy-2-(4-fluorophenyl)-2H-1,2,3-triazol-4-yl]methyl]-2-(trifluoromethyl)pyridine], the “Plant response rating, Pigweed, Palmer” value [1, 7] was 95, the “Plant response rating, Pigweed, Palmer” value [1, 8] was 100 and the “Plant response rating, Pigweed, Palmer” value [1, 9] was 100. The “Plant response rating, Pigweed, Palmer” value [1, 10] was 100, the “Plant response rating, Pigweed, Palmer” value [1, 11] was 100 and the “Plant response rating, Dayflower, VA” value [2, 7] was 30. The “Plant response rating, Dayflower, VA” value [2, 8] was 50, the “Plant response rating, Dayflower, VA” value [2, 9] was 60 and the “Plant response rating, Dayflower, VA” value [2, 10] was 60. For the same compound, the “Plant response rating, Dayflower, VA” value [2, 11] was 70, the “Plant response rating, Dayflower, VA” value [2, 12] was 5 and the “Plant response rating, Dayflower, VA” value [2, 13] was 35. The “Plant response rating, Dayflower, VA” value [2, 14] was 35, the “Plant response rating, Dayflower, VA” value [2, 15] was 50 and the “Plant response rating, Dayflower, VA” value [2, 16] was 65. For the same compound, the “Plant response rating, Field Bindweed” value [3, 7] was 50, the “Plant response rating, Field Bindweed” value [3, 8] was 60 and the “Plant response rating, Field Bindweed” value [3, 9] was 70. The “Plant response rating, Field Bindweed” value [3, 10] was 75, the “Plant response rating, Field Bindweed” value [3, 11] was 75 and the “Plant response rating, Field Bindweed” value [3, 12] was 0. For the same compound, the “Plant response rating, Field Bindweed” value [3, 13] was 0, the “Plant response rating, Field Bindweed” value [3, 14] was 25 and the “Plant response rating, Field Bindweed” value [3, 16] was 65. For the same compound, the “Plant response rating, Barnyardgrass” value [4, 7] was 30, the “Plant response rating, Barnyardgrass” value [4, 8] was 40 and the “Plant response rating, Barnyardgrass” value [4, 9] was 60. The “Plant response rating, Barnyardgrass” value [4, 10] was 60, the “Plant response rating, Barnyardgrass” value [4, 11] was 90 and the “Plant response rating, Barnyardgrass” value [4, 12] was 0. The “Plant response rating, Barnyardgrass” value [4, 13] was 25, the “Plant response rating, Barnyardgrass” value [4, 14] was 40 and the “Plant response rating, Barnyardgrass” value [4, 15] was 70. For the same compound, the “Plant response rating, Barnyardgrass” value [4, 16] was 100, the “Plant response rating, Lambsquarters” value ([5]; 8 g ai/ha, scale 0 to 100, 0 no effect, 100 complete control) was 60 and the “Plant response rating, Lambsquarters” value [5, 17] was 70. The “Plant response rating, Lambsquarters” value [5, 18] was 80, the “Plant response rating, Lambsquarters” value ([5]; 62 g ai/ha, scale 0 to 100) was 95 and the “Plant response rating, Lambsquarters” value ([5]; 125 g ai/ha, scale 0 to 100) was 98. The “Plant response rating: Wheat, Spring” value [6, 19] was 25, the “Plant response rating: Wheat, Spring” value [6, 20] was 35 and the “Plant response rating: Wheat, Spring” value [6, 21] was 35. The “Plant response rating, Wheat, Spring” value [6, 8] was 15, the “Plant response rating, Wheat, Spring” value [6, 13] was 0 and the “Plant response rating, Wheat, Spring” value [6, 14] was 5. For the same compound, the “Plant response rating, Wheat, Spring” value [6, 15] was 5 and the “Plant response rating, Wheat, Spring” value [6, 16] was 25.

`Cc1nn(-c2ccc(C(F)(F)F)c(F)c2)nc1Oc1ccnc(C(F)(F)F)c1` [Compound 148] was tested, and the “Plant response rating, Pigweed, Palmer” value [1, 13] was 0, the “Plant response rating, Pigweed, Palmer” value [1, 14] was 90 and the “Plant response rating, Pigweed, Palmer” value [1, 16] was 100. For the same compound, the “Plant response rating, Pigweed, Palmer” value [1, 22] was 100, the “Plant response rating, Dayflower, VA” value [2, 13] was 0 and the “Plant response rating, Dayflower, VA” value [2, 14] was 40. The “Plant response rating, Dayflower, VA” value [2, 15] was 40, the “Plant response rating, Dayflower, VA” value [2, 16] was 65 and the “Plant response rating, Dayflower, VA” value [2, 22] was 90. For the same compound, the “Plant response rating, Field Bindweed” value [3, 13] was 0, the “Plant response rating, Field Bindweed” value [3, 14] was 0 and the “Plant response rating, Field Bindweed” value [3, 15] was 0. The “Plant response rating, Field Bindweed” value [3, 16] was 20, the “Plant response rating, Field Bindweed” value [3, 22] was 50 and the “Plant response rating, Barnyardgrass” value [4, 13] was 0. For the same compound, the “Plant response rating, Barnyardgrass” value [4, 14] was 0, the “Plant response rating, Barnyardgrass” value [4, 15] was 0 and the “Plant response rating, Barnyardgrass” value [4, 16] was 20. For the same compound, the “Plant response rating, Barnyardgrass” value [4, 22] was 98, the “Plant response rating, Lambsquarters” value [5, 17] was 0 and the “Plant response rating, Lambsquarters” value [5, 18] was 50. The “Plant response rating, Lambsquarters” value ([5]; 62 g ai/ha, scale 0 to 100) was 98, the “Plant response rating, Lambsquarters” value ([5]; 125 g ai/ha, scale 0 to 100) was 100 and the “Plant response rating, Lambsquarters” value ([5]; 250 g ai/ha, scale 0 to 100) was 100. For the same compound, the “Plant response rating: Wheat, Spring” value [6, 19] was 10, the “Plant response rating: Wheat, Spring” value [6, 20] was 20 and the “Plant response rating: Wheat, Spring” value [6, 21] was 25. The “Plant response rating, Wheat, Spring” value [6, 8] was 10, the “Plant response rating, Wheat, Spring” value [6, 13] was 0 and the “Plant response rating, Wheat, Spring” value [6, 14] was 0. The “Plant response rating, Wheat, Spring” value [6, 15] was 0 and the “Plant response rating, Wheat, Spring” value [6, 16] was 5.

In the case of `CCc1nn(-c2ccc(C(F)(F)F)cc2)nc1Cc1ccnc(C(F)(F)F)c1` [Compound 155], the “Plant response rating, Pigweed, Palmer” value [1, 16] is reported as 100, the “Plant response rating, Pigweed, Palmer” value [1, 22] is reported as 100 and the “Plant response rating, Dayflower, VA” value [2, 15] is reported as 20. The “Plant response rating, Dayflower, VA” value [2, 16] was 35, the “Plant response rating, Dayflower, VA” value [2, 22] was 60 and the “Plant response rating, Field Bindweed” value [3, 15] was 85. For the same compound, the “Plant response rating, Field Bindweed” value [3, 16] was 95, the “Plant response rating, Field Bindweed” value [3, 22] was 100 and the “Plant response rating, Barnyardgrass” value [4, 15] was 30. The “Plant response rating, Barnyardgrass” value [4, 16] was 30, the “Plant response rating, Barnyardgrass” value [4, 22] was 100 and the “Plant response rating, Lambsquarters” value ([5]; 62 g ai/ha, scale 0 to 100) was 98. For the same compound, the “Plant response rating, Lambsquarters” value ([5]; 125 g ai/ha, scale 0 to 100) was 98, the “Plant response rating, Lambsquarters” value ([5]; 250 g ai/ha, scale 0 to 100) was 98 and the “Plant response rating: Wheat, Spring” value [6, 19] was 20. For the same compound, the “Plant response rating: Wheat, Spring” value [6, 20] was 25, the “Plant response rating: Wheat, Spring” value [6, 21] was 50 and the “Plant response rating, Wheat, Spring” value [6, 8] was 15. For the same compound, the “Plant response rating, Wheat, Spring” value [6, 13] was 0, the “Plant response rating, Wheat, Spring” value [6, 14] was 0 and the “Plant response rating, Wheat, Spring” value [6, 15] was 0. The “Plant response rating, Wheat, Spring” value [6, 16] was 5.
